Test results from patent publication US20090270394A1, “CYCLYLAMINE DERIVATIVES AS CALCIUM CHANNEL BLOCKERS” (priority 2008, published 2009).

Target: T1, Human Cav2.2 channels (Homo sapiens, UniProt Q00975)
T1 construct: expressed in transfected cells
Experiment: Fluorescent assay for Cav2.2 channels using potassium depolarization to initiate channel opening
Format: cell-based
Conditions: for IC50: 30 mM K (block of open and inactivated channels), read-out: Cav 2.2 Activity IC50 at 30 mM K; for inhibition at 10 µM: read-out: Cav 2.2 Activity % Inh at 10 μM; for inhibition at 30 µM: read-out: Cav 2.2 Activity % Inh at 30 μM
Excerpt: Human Cav2.2 channels were stably expressed in HEK293 cells along with alpha2-delta and beta subunits of voltage-gated calcium channels. An inwardly rectifying potassium channel (Kir2.3) was also expressed in these cells to allow more precise control of the cell membrane potential by extracellular potassium concentration. At low bath potassium concentration, the membrane potential is relatively negative, and is depolarized as the bath potassium concentration is raised. In this way, the bath potassium concentration can be used to regulate the voltage-dependent conformations of the channels. […] After the incubation period, Cav2.2 channel opening is triggered by addition of higher concentration of potassium (70 mM final concentration) to further depolarize the cell. The degree of state-dependent block can be estimated from the inhibitory potency of compounds after incubation in different potassium concentrations.
Calcium influx through Cav2.2 channels is determined using a calcium sensitive fluorescent dye in combination with a fluorescent plate reader. Fluorescent changes were measured with either a VIPR (Aurora Instruments) or FLIPR (Molecular Devices) plate reader.
• 1. Seed cells in Poly-D-Lysine Coated 96 or 384-well plate and keep in a 37° C.-10% CO2 incubator overnight • 2. […] Incubate in the dark at 25° C. for 60-70 min • 5. Remove dye, wash cells with 0.1 mL (96-well plate) or 0.06 mL (384-well plate) of 4, 12, 25, or 30 mM Potassium Pre-polarization Buffer (PPB) • 6. […] Incubate in the dark at 25° C. for 30 min • 8. Read cell plate on VIPR instrument, Excitation=480 nm, Emission=535 nm • 9. With VIPR continuously reading, add 0.1 mL (96-well plate) or 0.03 mL (384-well plate) of Depolarization Buffer (DB), which is 2× the final assay concentration, to the cell plate.

T1 sequence (Q00975 whole entry): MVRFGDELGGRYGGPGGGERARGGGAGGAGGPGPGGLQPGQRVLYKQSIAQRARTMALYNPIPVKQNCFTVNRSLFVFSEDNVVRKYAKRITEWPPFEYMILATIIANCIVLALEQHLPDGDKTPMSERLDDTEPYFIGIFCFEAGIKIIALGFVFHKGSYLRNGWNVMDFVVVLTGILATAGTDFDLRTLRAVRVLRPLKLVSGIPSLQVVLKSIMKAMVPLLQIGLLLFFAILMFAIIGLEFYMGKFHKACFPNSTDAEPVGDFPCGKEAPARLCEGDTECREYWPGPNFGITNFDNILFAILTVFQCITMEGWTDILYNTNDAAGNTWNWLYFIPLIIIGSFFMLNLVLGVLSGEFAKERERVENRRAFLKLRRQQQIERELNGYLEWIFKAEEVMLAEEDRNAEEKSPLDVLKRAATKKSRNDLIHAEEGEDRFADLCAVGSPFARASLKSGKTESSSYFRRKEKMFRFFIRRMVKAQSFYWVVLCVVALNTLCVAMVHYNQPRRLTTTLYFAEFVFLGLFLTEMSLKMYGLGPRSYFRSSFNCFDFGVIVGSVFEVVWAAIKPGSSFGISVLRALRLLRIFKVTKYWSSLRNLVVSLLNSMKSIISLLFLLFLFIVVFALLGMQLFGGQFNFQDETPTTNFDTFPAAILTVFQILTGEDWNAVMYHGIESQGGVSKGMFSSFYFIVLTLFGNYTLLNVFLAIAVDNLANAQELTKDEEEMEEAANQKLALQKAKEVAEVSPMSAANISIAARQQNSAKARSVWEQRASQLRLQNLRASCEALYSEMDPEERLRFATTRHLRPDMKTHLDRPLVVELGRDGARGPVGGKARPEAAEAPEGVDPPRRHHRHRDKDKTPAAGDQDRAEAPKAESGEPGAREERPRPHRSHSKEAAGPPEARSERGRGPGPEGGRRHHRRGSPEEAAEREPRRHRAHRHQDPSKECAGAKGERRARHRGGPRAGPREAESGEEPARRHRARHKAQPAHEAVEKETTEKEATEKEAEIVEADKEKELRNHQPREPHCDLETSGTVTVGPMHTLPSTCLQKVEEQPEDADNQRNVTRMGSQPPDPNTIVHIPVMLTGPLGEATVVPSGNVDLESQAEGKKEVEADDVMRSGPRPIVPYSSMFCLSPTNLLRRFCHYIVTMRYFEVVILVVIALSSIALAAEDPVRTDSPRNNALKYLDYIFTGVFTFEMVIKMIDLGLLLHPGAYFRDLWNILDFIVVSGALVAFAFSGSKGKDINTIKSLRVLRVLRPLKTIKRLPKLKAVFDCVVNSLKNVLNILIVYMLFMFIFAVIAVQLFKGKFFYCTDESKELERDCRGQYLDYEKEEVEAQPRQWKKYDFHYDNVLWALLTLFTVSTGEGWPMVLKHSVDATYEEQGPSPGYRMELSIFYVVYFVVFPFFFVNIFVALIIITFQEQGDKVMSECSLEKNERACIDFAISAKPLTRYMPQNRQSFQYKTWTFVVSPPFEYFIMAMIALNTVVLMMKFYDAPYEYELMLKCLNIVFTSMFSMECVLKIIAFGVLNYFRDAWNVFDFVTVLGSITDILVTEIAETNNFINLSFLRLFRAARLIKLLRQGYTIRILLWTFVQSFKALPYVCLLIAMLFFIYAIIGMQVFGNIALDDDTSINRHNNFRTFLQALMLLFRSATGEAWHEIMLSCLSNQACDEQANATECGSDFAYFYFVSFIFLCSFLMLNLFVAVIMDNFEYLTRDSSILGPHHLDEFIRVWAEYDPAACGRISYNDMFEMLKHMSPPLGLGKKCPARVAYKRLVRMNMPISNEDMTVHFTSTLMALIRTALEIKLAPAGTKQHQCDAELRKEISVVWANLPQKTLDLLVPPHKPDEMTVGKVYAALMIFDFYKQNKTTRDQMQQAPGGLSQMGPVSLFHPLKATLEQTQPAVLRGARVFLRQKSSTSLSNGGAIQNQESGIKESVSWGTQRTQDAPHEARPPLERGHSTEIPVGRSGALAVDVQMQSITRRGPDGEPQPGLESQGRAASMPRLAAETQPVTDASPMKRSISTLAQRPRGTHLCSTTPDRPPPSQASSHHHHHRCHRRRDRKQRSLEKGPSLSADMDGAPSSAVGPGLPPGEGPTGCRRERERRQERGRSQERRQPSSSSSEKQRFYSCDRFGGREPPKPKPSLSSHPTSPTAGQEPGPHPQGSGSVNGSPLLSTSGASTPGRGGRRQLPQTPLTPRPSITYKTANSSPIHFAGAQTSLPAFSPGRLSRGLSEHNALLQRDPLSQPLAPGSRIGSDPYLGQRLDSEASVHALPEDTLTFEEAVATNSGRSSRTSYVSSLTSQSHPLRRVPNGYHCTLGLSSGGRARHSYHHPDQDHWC
T1 sequence (P54289 25-1103 partner): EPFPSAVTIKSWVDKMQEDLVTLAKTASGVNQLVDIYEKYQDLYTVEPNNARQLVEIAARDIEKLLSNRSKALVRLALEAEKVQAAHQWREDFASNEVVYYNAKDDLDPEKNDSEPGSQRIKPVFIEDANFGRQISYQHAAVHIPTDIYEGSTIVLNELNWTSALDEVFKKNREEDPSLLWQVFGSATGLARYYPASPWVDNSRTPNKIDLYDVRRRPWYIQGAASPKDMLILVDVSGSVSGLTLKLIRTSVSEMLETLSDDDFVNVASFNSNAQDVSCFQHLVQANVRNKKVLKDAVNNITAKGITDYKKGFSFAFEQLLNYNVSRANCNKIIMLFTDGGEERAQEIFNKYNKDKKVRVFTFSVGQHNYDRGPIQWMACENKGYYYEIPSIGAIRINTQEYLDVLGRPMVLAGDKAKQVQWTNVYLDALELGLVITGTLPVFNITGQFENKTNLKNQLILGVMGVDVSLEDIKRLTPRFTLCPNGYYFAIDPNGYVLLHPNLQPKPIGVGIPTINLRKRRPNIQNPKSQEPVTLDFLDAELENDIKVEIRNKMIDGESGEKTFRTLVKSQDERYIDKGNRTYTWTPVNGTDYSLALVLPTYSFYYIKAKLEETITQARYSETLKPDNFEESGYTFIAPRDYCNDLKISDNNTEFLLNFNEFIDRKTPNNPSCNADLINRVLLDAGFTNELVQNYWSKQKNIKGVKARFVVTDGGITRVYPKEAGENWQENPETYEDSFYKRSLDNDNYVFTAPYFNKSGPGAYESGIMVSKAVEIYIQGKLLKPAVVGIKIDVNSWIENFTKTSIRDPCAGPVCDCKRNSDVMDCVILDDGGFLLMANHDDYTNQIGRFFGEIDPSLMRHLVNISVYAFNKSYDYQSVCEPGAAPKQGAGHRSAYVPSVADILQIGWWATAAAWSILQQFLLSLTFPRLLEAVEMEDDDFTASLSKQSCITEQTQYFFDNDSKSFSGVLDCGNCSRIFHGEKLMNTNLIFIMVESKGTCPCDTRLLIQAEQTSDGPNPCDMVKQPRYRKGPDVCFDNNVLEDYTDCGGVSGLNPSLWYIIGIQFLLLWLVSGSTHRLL
T1 sequence (P54284 whole entry partner): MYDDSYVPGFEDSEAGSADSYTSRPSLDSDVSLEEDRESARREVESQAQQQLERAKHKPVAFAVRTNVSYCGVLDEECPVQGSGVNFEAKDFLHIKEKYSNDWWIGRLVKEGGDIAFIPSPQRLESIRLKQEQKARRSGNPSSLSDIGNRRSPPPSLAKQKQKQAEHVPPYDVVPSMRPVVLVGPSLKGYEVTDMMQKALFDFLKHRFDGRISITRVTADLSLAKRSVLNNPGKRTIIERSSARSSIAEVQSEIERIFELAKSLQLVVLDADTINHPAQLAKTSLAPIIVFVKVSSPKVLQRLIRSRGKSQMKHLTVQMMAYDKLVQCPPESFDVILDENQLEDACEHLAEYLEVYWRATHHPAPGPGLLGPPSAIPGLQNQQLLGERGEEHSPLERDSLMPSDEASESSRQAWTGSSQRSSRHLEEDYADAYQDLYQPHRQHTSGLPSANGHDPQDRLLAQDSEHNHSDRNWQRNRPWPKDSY

Compound	IC50 [nM]	inhibition at 10 µM (10 μM compound) [%]	inhibition at 30 µM (30 μM compound) [%]	Cav 2.2 Activity % Inh at 10 μM (10 μM compound) [%]	Cav 2.2 Activity % Inh at 30 μM (30 μM compound) [%]
1-(2,6-di-tert-butylisonicotinimidamido)-N-((5-methylisoxazol-3-yl)methyl)cyclopentanecarboxamide [Compound 90]	77.2			90.95	98.53
CC(C)(C)c1cc(C(=O)NC2(C(=O)NCc3nccs3)CC2)cc(C(C)(C)C)c1O [Compound 1, 3,5-di-tert-butyl-4-hydroxy-N-(1-(thiazol-2-ylmethylcarbamoyl)cyclopropyl)benzamide]	1210	95.2	104		
Cc1cc(CNC(=O)C2(NC(=O)c3cc(C(C)(C)C)c(O)c(C(C)(C)C)c3)CC2)nn1C [Compound 2, 3,5-di-tert-butyl-N-(1-((1,5-dimethyl-1H-pyrazol-3-yl)methylcarbamoyl)cyclopropyl)-4-hydroxybenzamide]	1410	99	104		
Cc1cnc(CNC(=O)C2(NC(=O)c3cc(C(C)(C)C)c(O)c(C(C)(C)C)c3)CC2)cn1 [Compound 3, 3,5-di-tert-butyl-4-hydroxy-N-(1-((5-methylpyrazin-2-yl)methylcarbamoyl)cyclopropyl)benzamide]	1620	89.8	98.8		
CC(C)(C)c1cc(C(=O)NC2(C(=O)Nc3ccccn3)CC2)cc(C(C)(C)C)c1O [Compound 4, 3,5-di-tert-butyl-4-hydroxy-N-(1-(pyridin-2-ylcarbamoyl)cyclopropyl)benzamide]	355	68	76		
Cc1cnc(CNC(=O)C2(NC(=O)c3cc(C(C)(C)C)c(O)c(C(C)(C)C)c3)CCCCC2)cn1 [Compound 5, 3,5-di-tert-butyl-4-hydroxy-N-(1-((5-methylpyrazin-2-yl)methylcarbamoyl)cyclohexyl)benzamide]	127	94.6	96.4		
Cc1cc(CNC(=O)C2(NC(=O)c3cc(C4CC4)cc(C4CC4)c3)CCCCC2)nn1C [Compound 6, 3,5-dicyclopropyl-N-(1-((1,5-dimethyl-1H-pyrazol-3-yl)methylcarbamoyl)cyclohexyl)benzamide]		54.7	66		
CN(C)c1ccc(CNC(=O)C2(NC(=O)c3cc(C(C)(C)C)c(O)c(C(C)(C)C)c3)CCCCC2)cc1 [Compound 7, 3,5-di-tert-butyl-N-(1-(4-(dimethylamino)benzylcarbamoyl)cyclohexyl)-4-hydroxybenzamide]	128	99.3	102		
Cc1cc(CNC(=O)C2(NC(=O)c3cc(C(C)(C)C)c(O)c(C(C)(C)C)c3)CCCCC2)nn1C [Compound 8, 3,5-di-tert-butyl-N-(1-((1,5-dimethyl-1H-pyrazol-3-yl)methylcarbamoyl)cyclohexyl)-4-hydroxybenzamide]	129	100	99		
Cc1cc(CNC(=O)C2(NC(=O)c3cc(C(C)(C)C)nc(C(C)(C)C)c3)CC2)no1 [Compound 9, 2,6-di-tert-butyl-N-(1-((5-methylisoxazol-3-yl)methylcarbamoyl)cyclopropyl)isonicotinamide]		45.7	53.4		
CC(C)(C)c1cc(C(=O)NC2(C(=O)NCc3nccs3)CC2)cc(C(C)(C)C)n1 [Compound 10, 2,6-di-tert-butyl-N-(1-(thiazol-2-ylmethylcarbamoyl)cyclopropyl)isonicotinamide]	184	95.7	101		
Cc1cnc(CNC(=O)C2(NC(=O)c3cc(C(C)(C)C)nc(C(C)(C)C)c3)CC2)cn1 [Compound 11, 2,6-di-tert-butyl-N-(1-((5-methylpyrazin-2-yl)methylcarbamoyl)cyclopropyl)isonicotinamide]	336	91.9	92.2		
Cc1cc(CNC(=O)C2(NC(=O)c3cc(C(C)(C)C)c(O)c(C(C)(C)C)c3)CCCCC2)no1 [Compound 12, 3,5-di-tert-butyl-4-hydroxy-N-(1-((5-methylisoxazol-3-yl)methylcarbamoyl)cyclohexyl)benzamide]	55	98.6	101		
CC(C)(C)c1cc(C(=O)NC2(C(=O)NCc3nccs3)CCCCC2)cc(C(C)(C)C)c1O [Compound 13, 3,5-di-tert-butyl-4-hydroxy-N-(1-(thiazol-2-ylmethylcarbamoyl)cyclohexyl)benzamide]	34.1	96.9	99.8		
CC(C)(C)c1cc(C(=O)NC2(C(=O)NCc3ccc(S(C)(=O)=O)cc3)CCOCC2)cc(C(C)(C)C)c1O [Compound 14, 4-(3,5-di-tert-butyl-4-hydroxybenzamido)-N-(4-(methylsulfonyl)benzyl)tetrahydro-2H-pyran-4-carboxamide]		80.7	81.9		
COc1c(C(C)(C)C)cc(CC(=O)NC2(C(=O)NCc3cccc(C(F)(F)F)c3)CCCCC2)cc1C(C)(C)C [Compound 15, 1-(2-(3,5-di-tert-butyl-4-methoxyphenyl)acetamido)-N-(3-(trifluoromethyl)benzyl)cyclohexanecarboxamide]		48.2	65.9		
CC(C)(C)c1cc(C(=O)NC2(C(=O)NCc3cccc(S(C)(=O)=O)c3)CC2)cc(C(C)(C)C)c1O [Compound 16, 3,5-di-tert-butyl-4-hydroxy-N-(1-(3-(methylsulfonyl)benzylcarbamoyl)cyclopropyl)benzamide]		89.3	93		

Second part, led by results:

IC50 [nM]	inhibition at 10 µM (10 μM compound) [%]	inhibition at 30 µM (30 μM compound) [%]	Compound	Cav 2.2 Activity % Inh at 10 μM (10 μM compound) [%]	Cav 2.2 Activity % Inh at 30 μM (30 μM compound) [%]
	48.2	90.6	COc1c(C(C)(C)C)cc(CC(=O)NC2(C(=O)NCc3ccccc3)CCCCC2)cc1C(C)(C)C [Compound 17, N-benzyl-1-(2-(3,5-di-tert-butyl-4-methoxyphenyl)acetamido)cyclohexanecarboxamide]		
	40.7	34.5	COc1ccc(CNC(=O)C2(NC(=O)Cc3cc(C(C)(C)C)c(OC)c(C(C)(C)C)c3)CCCCC2)cc1 [Compound 18, 1-(2-(3,5-di-tert-butyl-4-methoxyphenyl)acetamido)-N-(4-methoxybenzyl)cyclohexanecarboxamide]		
	60.3		CC(C)(C)c1cc(C(=O)NC2(C(=O)Nc3nc4ccccc4[nH]3)CC2)cc(C(C)(C)C)n1 [Compound 19, N-(1-(1H-benzo[d]imidazol-2-ylcarbamoyl)cyclopropyl)-2,6-di-tert-butylisonicotinamide]		
102	100		CC(C)(C)c1cc(C(=O)NC2(C(=O)Nc3ccccn3)CC2)cc(C(C)(C)C)n1 [Compound 20, 2,6-di-tert-butyl-N-(1-(pyridin-2-ylcarbamoyl)cyclopropyl)isonicotinamide]		
143	97.1		CC(C)(C)c1cc(C(=O)NC2(C(=O)NCc3ccccn3)CC2)cc(C(C)(C)C)n1 [Compound 21, 2,6-di-tert-butyl-N-(1-(pyridin-2-ylmethylcarbamoyl)cyclopropyl)isonicotinamide]		
402	95.1		COc1c(C(C)(C)C)cc(C(=O)NC2(C(=O)NCc3cnc(C)cn3)CCN(C(=O)OC(C)(C)C)CC2)cc1C(C)(C)C [Compound 22, tert-butyl 4-(3,5-di-tert-butyl-4-methoxybenzamido)-4-((5-methylpyrazin-2-yl)methylcarbamoyl)piperidine-1-carboxylate]		
	87.4		CN(C)Cc1ccc(CNC(=O)C2(NC(=O)c3cc(C(C)(C)C)nc(C(C)(C)C)c3)CCOCC2)cc1 [Compound 23, 2,6-di-tert-butyl-N-(4-(4-((dimethylamino)methyl)benzylcarbamoyl)tetrahydro-2H-pyran-4-yl)isonicotinamide]		
767	79.2		CC(C)(C)c1cc(C(=O)NC2(C(=O)NCc3ccc(CN4CCOCC4)cc3)CCOCC2)cc(C(C)(C)C)n1 [Compound 24, 2,6-di-tert-butyl-N-(4-(4-(morpholinomethyl)benzylcarbamoyl)tetrahydro-2H-pyran-4-yl)isonicotinamide]		
87.4	70.5		CN(C)c1cccc(CNC(=O)C2(NC(=O)c3cc(C(C)(C)C)nc(C(C)(C)C)c3)CCOCC2)c1 [Compound 25, 2,6-di-tert-butyl-N-(4-(3-(dimethylamino)benzylcarbamoyl)tetrahydro-2H-pyran-4-yl)isonicotinamide]		
	49		CN(C)c1ccccc1CNC(=O)C1(NC(=O)c2cc(C(C)(C)C)nc(C(C)(C)C)c2)CCOCC1 [Compound 26, 2,6-di-tert-butyl-N-(4-(2-(dimethylamino)benzylcarbamoyl)tetrahydro-2H-pyran-4-yl)isonicotinamide]		
